The values that follow are results of earlier work, collected in US9970152B2, “Method for functionalizing a solid material surface with self assembling or self aggregating cyclodextrins and products thereof” (Aalborg Universitet, priority 2010, dated 2018).

For this series the following is noted: in water.

In the case of `OC[C@H]1O[C@@H]2O[C@H]3[C@H](O)[C@@H](O)[C@@H](O[C@H]4[C@H](O)[C@@H](O)[C@@H](O[C@H]5[C@H](O)[C@@H](O)[C@@H](O[C@H]6[C@H](O)[C@@H](O)[C@@H](O[C@H]7[C@H](O)[C@@H](O)[C@@H](O[C@H]1[C@H](O)[C@H]2O)O[C@@H]7CO)O[C@@H]6CO)O[C@@H]5CO)O[C@@H]4CO)O[C@@H]3CO` [α CD], the Solubility is recorded as 129.5 g/kg H2O.
